Source: ChEMBL document CHEMBL4007386, “Design, synthesis of allosteric peptide activator for human SIRT1 and its biological evaluation in cellular model of Alzheimer's disease” (Eur J Med Chem, 2017)
Each block holds one molecule with its values, some of them ahead of it. Calls of active or inactive are those of the source. The rule behind the calls is not given here. Where a SMILES comes first, the peptide text is derived from it.

How the values were obtained:
[1] = molecular target: T1, NAD-dependent protein deacetylase sirtuin-1 (Homo sapiens) (UniProt Q96EB6); experiment: Activation of SIRT1 (unknown origin) expressed in bacterial expression system assessed as increase in enzyme activity at 100 uM using Fluorophore labeled-Arg-His-Lys-Lys (Ac) as substrate incubated for 30 mins in presence of NAD+ by fluorimetric method relative to control
T1 sequence (whole entry): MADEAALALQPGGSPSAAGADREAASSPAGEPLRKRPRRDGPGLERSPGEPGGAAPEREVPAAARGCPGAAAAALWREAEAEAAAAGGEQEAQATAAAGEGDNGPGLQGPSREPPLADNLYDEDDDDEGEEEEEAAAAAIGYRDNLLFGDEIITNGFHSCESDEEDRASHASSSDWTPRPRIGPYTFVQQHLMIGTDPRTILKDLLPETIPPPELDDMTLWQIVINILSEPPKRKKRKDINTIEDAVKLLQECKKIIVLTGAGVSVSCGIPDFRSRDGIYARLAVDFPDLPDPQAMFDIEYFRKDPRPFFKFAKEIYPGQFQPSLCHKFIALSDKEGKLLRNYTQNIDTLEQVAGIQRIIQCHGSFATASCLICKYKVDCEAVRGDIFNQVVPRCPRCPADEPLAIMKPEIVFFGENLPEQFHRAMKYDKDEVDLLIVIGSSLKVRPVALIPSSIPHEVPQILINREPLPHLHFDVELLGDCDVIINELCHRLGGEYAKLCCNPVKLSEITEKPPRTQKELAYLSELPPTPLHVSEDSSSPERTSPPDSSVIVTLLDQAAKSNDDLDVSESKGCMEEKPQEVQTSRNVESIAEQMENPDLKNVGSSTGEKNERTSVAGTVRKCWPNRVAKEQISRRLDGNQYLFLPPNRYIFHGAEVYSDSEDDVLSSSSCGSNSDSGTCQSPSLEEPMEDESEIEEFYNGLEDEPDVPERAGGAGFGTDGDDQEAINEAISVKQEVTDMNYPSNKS

[2] = molecular target: T1, NAD-dependent protein deacetylase sirtuin-1 (Homo sapiens); experiment: Activation of SIRT1 (unknown origin) expressed in bacterial expression system assessed as increase in enzyme activity at 105 uM using Fluorophore labeled-Arg-His-Lys-Lys (Ac) as substrate incubated for 30 mins in presence of NAD+ by fluorimetric method relative to control
[3] = molecular target: T1, NAD-dependent protein deacetylase sirtuin-1 (Homo sapiens); experiment: Activation of SIRT1 (unknown origin) expressed in bacterial expression system assessed as increase in enzyme activity at >145 uM using Fluorophore labeled-Arg-His-Lys-Lys (Ac) as substrate incubated for 30 mins in presence of NAD+ by fluorimetric method
[4] = molecular target: T1, NAD-dependent protein deacetylase sirtuin-1 (Homo sapiens); experiment: Activation of SIRT1 (unknown origin) expressed in bacterial expression system assessed as increase in enzyme activity using Fluorophore labeled-Arg-His-Lys-Lys (Ac) as substrate incubated for 30 mins in presence of NAD+ by fluorimetric method
[5] = molecular target: T1, NAD-dependent protein deacetylase sirtuin-1 (Homo sapiens); experiment: Activation of SIRT1 in Alzheimer's disease patient serum assessed as increase in deacetylation of SIRT1 substrate peptide at 1.5 to 3 mM preincubated for 1 hr followed by substrate addition measured after 1 hr by fluorescence spectroscopic method relative to control
[6] = molecular target: T2, NAD-dependent protein deacetylase sirtuin-2 (Homo sapiens) (UniProt Q8IXJ6); experiment: Activity at SIRT2 in Alzheimer's disease patient serum assessed as effect on deacetylation of SIRT2 substrate peptide at 1.5 to 3 mM preincubated for 1 hr followed by substrate addition measured after 1 hr by fluorescence spectroscopic method
T2 sequence (whole entry): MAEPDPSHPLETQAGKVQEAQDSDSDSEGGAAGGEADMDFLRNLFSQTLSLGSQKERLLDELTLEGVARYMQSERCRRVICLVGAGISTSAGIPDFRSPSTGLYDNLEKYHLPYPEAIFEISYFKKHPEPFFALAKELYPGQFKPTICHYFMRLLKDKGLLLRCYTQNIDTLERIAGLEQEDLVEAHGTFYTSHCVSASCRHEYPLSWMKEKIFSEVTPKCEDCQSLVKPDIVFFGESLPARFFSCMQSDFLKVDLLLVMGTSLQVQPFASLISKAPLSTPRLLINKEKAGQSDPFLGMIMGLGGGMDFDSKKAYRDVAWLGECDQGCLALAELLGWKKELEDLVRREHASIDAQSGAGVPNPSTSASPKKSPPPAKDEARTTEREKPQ

[7] = molecular target: T1, NAD-dependent protein deacetylase sirtuin-1 (Homo sapiens); experiment: Allosteric activation of SIRT1 in human IMR32 cells assessed as decrease in acetylation level of K382 residue of p53 after 48 hrs by Western blot method; type: cell-based
[8] = molecular target: T1, NAD-dependent protein deacetylase sirtuin-1 (Homo sapiens); experiment: Allosteric activation of SIRT1 in human IMR32 cells assessed as decrease in acetylation level of K382 residue of p53 at 160 uM after 48 hrs in presence of SIRT1 inhibitor nicotinamide by Western blot method; type: cell-based
[9] = molecular target: T1, NAD-dependent protein deacetylase sirtuin-1 (Homo sapiens); experiment: Activation of SIRT1 in human IMR32 cells assessed as protection against amyloid beta (25 to 35)-induced toxicity by measuring cell viability at 10 uM after 48 hrs by MTT assay (reference value: 56.3 +/- 1.2%); type: cell-based
[10] = molecular target: T1, NAD-dependent protein deacetylase sirtuin-1 (Homo sapiens); experiment: Activation of SIRT1 in human IMR32 cells assessed as protection against amyloid beta (25 to 35)-induced toxicity by measuring cell viability at 20 uM after 48 hrs by MTT assay (reference value: 56.3 +/- 1.2%); type: cell-based
[11] = molecular target: T1, NAD-dependent protein deacetylase sirtuin-1 (Homo sapiens); experiment: Activation of SIRT1 in human IMR32 cells assessed as protection against amyloid beta (25 to 35)-induced toxicity by measuring cell viability at 40 uM after 48 hrs by MTT assay (reference value: 56.3 +/- 1.2%); type: cell-based
[12] = molecular target: T1, NAD-dependent protein deacetylase sirtuin-1 (Homo sapiens); experiment: Activation of SIRT1 in human IMR32 cells assessed as protection against amyloid beta (25 to 35)-induced toxicity by measuring cell viability at 80 uM after 48 hrs by MTT assay (reference value: 56.3 +/- 1.2%); type: cell-based
[13] = molecular target: T1, NAD-dependent protein deacetylase sirtuin-1 (Homo sapiens); experiment: Activation of SIRT1 in Alzheimer's disease patient serum assessed as increase in deacetylation of SIRT1 substrate peptide at 5 mM preincubated for 1 hr followed by substrate addition measured after 1 hr by fluorescence spectroscopic method

Activity [1]: 28%
SMILES: N=C(N)NCCC[C@H](NC(=O)[C@H](Cc1c[nH]c2ccccc12)NC(=O)[C@@H](N)Cc1ccccc1)C(=O)O (H-Phe-Trp-Arg-OH)

Activity [1]: 5%
SMILES: CC(C)[C@H](NC(=O)[C@@H](N)Cc1cnc[nH]1)C(=O)N[C@@H](CCCNC(=N)N)C(=O)O (H-His-Val-Arg-OH)

Activity [1]: 4%
SMILES: N=C(N)NCCC[C@H](NC(=O)[C@H](Cc1ccc(O)cc1)NC(=O)[C@@H](N)CC(N)=O)C(=O)O (H-Asn-Tyr-Arg-OH)

Activity [1]: 19%
SMILES: N=C(N)NCCC[C@H](NC(=O)[C@H](Cc1ccc(O)cc1)NC(=O)[C@@H](N)Cc1cnc[nH]1)C(=O)O (H-His-Tyr-Arg-OH)

Activity [1]: 15%
SMILES: N[C@@H](Cc1cnc[nH]1)C(=O)N[C@@H](CCC(=O)O)C(=O)N[C@@H](Cc1ccc(O)cc1)C(=O)O (H-His-Glu-Tyr-OH)

Activity [1]: -10%
SMILES: N=C(N)NCCC[C@H](NC(=O)[C@@H]1CCCN1C(=O)[C@@H](N)Cc1cnc[nH]1)C(=O)O (H-His-Pro-Arg-OH)

Activity [1]: 6%
SMILES: CC(C)C[C@H](NC(=O)[C@@H](N)CC(N)=O)C(=O)N[C@@H](CCCNC(=N)N)C(=O)O (H-Asn-Leu-Arg-OH)

fold change (FC) [2]: 2
Activity [1]: 97%
Activity [3]: Active
EC1.5 [4]: 55 µM
Activity [5]: 21.2%
Activity [6]: inactive
Activity [7]: Dose-dependent effect
Activity [8]: inactive
SMILES: N=C(N)NCCC[C@H](NC(=O)[C@H](Cc1c[nH]c2ccccc12)NC(=O)[C@@H](N)CS)C(=O)O (H-Cys-Trp-Arg-OH)
Activity [9]: 57.1%
Activity [10]: 68%
Activity [11]: 79.8%
Activity [12]: 83.4%

Activity [1]: 12%
SMILES: N=C(N)NCCC[C@H](NC(=O)[C@H](Cc1ccc(O)cc1)NC(=O)[C@@H](N)CCC(N)=O)C(=O)O (H-Gln-Tyr-Arg-OH)

Activity [1]: 24%
SMILES: N=C(N)NCCC[C@H](NC(=O)[C@H](Cc1c[nH]c2ccccc12)NC(=O)[C@@H](N)CC(N)=O)C(=O)O (H-Asn-Trp-Arg-OH)

Activity [13]: inactive
SMILES: NC(=O)c1cccnc1
